Where two headings read alike, the source gives them in different places.
Columns and labels:
estrogen receptor (ER) [1] = type: cell-based, human
human androgen receptor [2] = molecular target: T1, human androgen receptor (Homo sapiens, UniProt P10275); type: cell-based
T1 construct: host or cells: Chinese hamster ovary (CHO) cells, AR-EcoScreen GR KO M1, stably transfected, glucocorticoid receptor knocked out
T1 sequence (P10275 1-920): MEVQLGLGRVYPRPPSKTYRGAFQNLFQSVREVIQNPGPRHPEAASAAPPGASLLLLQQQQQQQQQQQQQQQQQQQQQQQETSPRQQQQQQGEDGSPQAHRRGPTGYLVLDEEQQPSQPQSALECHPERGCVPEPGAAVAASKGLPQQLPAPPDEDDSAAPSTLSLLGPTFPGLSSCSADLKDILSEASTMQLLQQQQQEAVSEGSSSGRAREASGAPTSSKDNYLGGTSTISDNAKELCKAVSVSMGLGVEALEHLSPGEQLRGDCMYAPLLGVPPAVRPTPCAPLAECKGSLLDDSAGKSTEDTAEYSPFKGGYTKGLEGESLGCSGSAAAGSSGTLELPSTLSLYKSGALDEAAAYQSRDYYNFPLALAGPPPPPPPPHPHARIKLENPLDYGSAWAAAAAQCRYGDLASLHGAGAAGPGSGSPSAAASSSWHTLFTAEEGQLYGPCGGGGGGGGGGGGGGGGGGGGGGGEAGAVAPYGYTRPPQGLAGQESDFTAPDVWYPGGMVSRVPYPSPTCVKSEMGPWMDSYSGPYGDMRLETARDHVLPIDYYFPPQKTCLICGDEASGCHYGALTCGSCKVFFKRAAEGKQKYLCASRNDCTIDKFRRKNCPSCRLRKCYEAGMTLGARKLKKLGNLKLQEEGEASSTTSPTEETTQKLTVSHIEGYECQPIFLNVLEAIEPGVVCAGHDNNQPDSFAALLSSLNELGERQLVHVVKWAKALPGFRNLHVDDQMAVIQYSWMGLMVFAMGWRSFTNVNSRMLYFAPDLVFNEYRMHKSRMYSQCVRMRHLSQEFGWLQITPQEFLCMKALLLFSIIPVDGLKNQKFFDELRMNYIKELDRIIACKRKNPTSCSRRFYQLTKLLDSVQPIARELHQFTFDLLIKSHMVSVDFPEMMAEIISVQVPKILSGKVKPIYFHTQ

estrogen receptor (ER) [3] = system: estrogen receptor (ER)
human androgen receptor [4] = molecular target: T1, human androgen receptor; type: cell-based; remark: listed apart in the source
AR = system: AR; parameters: method as in Molina-Molina et al. [2014]; details: androgen-sensitive PALM cells; ref Molina-Molina et al. [2014]; cited from earlier work
[5] = parameters: method as in Drzymala et al. [2015]; details: ref Drzymala et al. [2015]; cited from earlier work
TK6 cells [6] = system: TK6 cells
TK6 cells [7] = system: TK6 cells; parameters: method as in Takakura et al. [2014]; details: concentrations below 12.5 µM, 3 h of treatment, with or without human and rat liver S9; ref Takakura et al. [2014]; cited from earlier work
[8] = DON compounds, S9 + PHI + PHII cofactors, [95% CI]
[9] = DON compounds, S9 + PHII cofactors, [95% CI]
[10] = DON compounds, S9 alone, [95% CI]
[11] = DON compounds, no MAS, [95% CI]
[12] = without exogenous MAS, initial concentration-range finding trials, 24 h
[13] = DON compounds, S9 + PHI + PHII cofactors
[14] = DON compounds, S9 + PHII cofactors
[15] = ZEN compounds, S9 + PHI cofactors, [95% CI]
[16] = ZEN compounds, S9 alone, [95% CI]

Row | SMILES | ER antagonism IC30 (estrogen receptor (ER) [1]; [8]) | ER antagonism IC30 (estrogen receptor (ER) [1]; [9]) | ER antagonism IC30 (estrogen receptor (ER) [1]; [10]) | ER antagonism IC30 (estrogen receptor (ER) [1]; [11]) | ER antagonism IC30 (estrogen receptor (ER) [1]; [12]) [µM] | AR agonism EC10 (human androgen receptor [2]; [8]) | AR agonism EC10 (human androgen receptor [2]; [9]) | AR agonism EC10 (human androgen receptor [2]; [10]) | AR agonism EC10 (human androgen receptor [2]; [11]) | AR agonism EC10 (human androgen receptor [2]; [12]) [µM] | ER agonism EC10 (estrogen receptor (ER) [3]; [13]) | ER agonism EC10 (estrogen receptor (ER) [3]; [14]) | ER agonism EC10 (estrogen receptor (ER) [3]; [10]) | ER agonism EC10 (estrogen receptor (ER) [3]; [11]) | ER agonism EC10 (estrogen receptor (ER) [3]; [12]) | AR antagonism IC30 (human androgen receptor [4]; [13]) | AR antagonism IC30 (human androgen receptor [4]; [14]) | AR antagonism IC30 (human androgen receptor [4]; DON compounds, S9 alone) | AR antagonism IC30 (human androgen receptor [4]; DON compounds, no MAS) | AR antagonism IC30 (human androgen receptor [4]; [12]) | further results
1 | CC(=O)OC[C@]12[C@H](O)C(=O)C(C)=C[C@H]1O[C@@H]1[C@H](O)C[C@@]2(C)[C@]12CO2 [15-Ac-DON, 15-acetyl deoxynivalenol] | 0.48 [0.30,0.72] µM | 0.24 [0.18,0.32] µM | 1.11 [0.81,1.38] µM | 1.09 [0.98, 1.20] µM | 0.99 | 0.52 [0.45,0.62] µM | 0.50 [0.45,0.56] µM | 0.70 [0.62,0.76] µM | 0.81 [0.74,0.87] µM | 0.77 | <LOD | <LOD | <LOD | <LOD | <LOD | <LOD | <LOD | <LOD | <LOD | <LOD | 
2 | C[C@H]1CCC[C@H](O)CCC/C=C/c2cc(O)cc(O)c2C(=O)O1 [α-ZEL, α-Zearalenol] |  |  |  |  | 1.39 |  |  |  |  |  |  |  |  |  | 3.59 pM |  |  |  |  |  | ER antagonism IC30 (estrogen receptor (ER) [1]; ZEN compounds, S9 + PHI + PHII cofactors, [95% CI]): 5.10 [2.88,8.13] µM; ER antagonism IC30 (estrogen receptor (ER) [1]; [15]): 2.42 [1.35,3.63] µM; ER antagonism IC30 (estrogen receptor (ER) [1]; [16]): 1.75 [0.69,3.02] µM; ER antagonism IC30 (estrogen receptor (ER) [1]; ZEN compounds, no MAS, [95% CI]): 1.03 [0.33,1.78] µM; AR antagonistic effect IC50 (AR): micromolar range; AR agonism EC10 (human androgen receptor [2]): <LOD; Estrogenic potency relative to ZEN (times more potent) (estrogen receptor (ER) [3]): ~10 times; ER agonism EC10 (estrogen receptor (ER) [3]; [15]): 49.3 [30.2,75.9] pM; ER agonism EC10 (estrogen receptor (ER) [3]; [16]): 4.24 [2.82,6.31] pM; ER agonism EC10 (estrogen receptor (ER) [3]; ZEN compounds, no MAS (S9 −, PHI −, PHII −), [95% CI]): 3.70 [2.51,5.37] pM
3 | CC1CCCC(=O)CCC/C=C/c2cc(O)c(O)c(O)c2C(=O)O1 (centres unmarked) [15-OH-ZEN] |  |  |  |  |  |  |  |  |  |  |  |  |  |  |  |  |  |  |  |  | Estrogenic potency compared to ZEN, set at 1 [5]: 0.02
4 | CC1=C[C@H]2O[C@@H]3[C@H](O)C[C@](C)([C@@]2(CO)[C@H](O)C1=O)[C@]31CO1 [DON, deoxynivalenol] | 0.37 [0.25,0.58] µM | 0.25 [0.18,0.38] µM | 0.75 [0.54,1.05] µM | 0.81 [0.69,1.00] µM | 0.91 | 0.45 [0.39,0.52] µM | 0.38 [0.32,0.46] µM | 0.84 [0.72,0.98] µM | 0.87 [0.81,0.93] µM | 0.83 | <LOD | <LOD | <LOD | <LOD | <LOD | <LOD | <LOD | <LOD | <LOD | <LOD | Micronuclei formation (% MN) versus vehicle controls (TK6 cells [6]; 5 h exposure, alone, with S9 alone or S9 with cofactors, ZEN 6.25 and 12.50 µM, DON 0.78 and 1.56 µM): neither ZEN nor DON alone or with the S9 alone or with cofactors had any statistically significant effect on % MN; Micronuclei formation (% MN) versus vehicle control (TK6 cells [6]; 24 h continuous exposure, without MAS, non-cytotoxic test concentrations): No statistically significant increases in % MN; MN formations (TK6 cells [7]): did not induce any significant MN formations

Source: article PMC11258189, “Estrogenic, androgenic, and genotoxic activities of zearalenone and deoxynivalenol in in vitro bioassays including exogenous metabolic activation” (Mycotoxin Research, 2024)
